PMC8126241, “Active Components from Cassia abbreviata Prevent HIV-1 Entry by Distinct Mechanisms of Action” (International Journal of Molecular Sciences, 2021)
Where two headings read alike, the source gives them in different places.

Legend:
[1] = tested on: Herpes simplex virus-1 TK KOS ACV; assay: Broad spectrum antiviral activity, HEL cells; format: cell-based; conditions: Human alphaherpesvirus 1, HEL
Punta toro virus = assay: Broad spectrum antiviral activity, vero cells; format: cell-based
Yellow fever virus = assay: microbe, parasite or virus in culture; format: cell-based; conditions: Vero
[2] = tested on: Herpes simplex virus-1 (KOS); assay: Broad spectrum antiviral activity, HEL cells; format: cell-based
Reovirus-1 = assay: Broad spectrum antiviral activity, vero cells; format: cell-based
[3] = tested on: pseudotype virus pNL4.3ΔEnvLuc-HXB2; assay: microbe, parasite or virus in culture; conditions: Human immunodeficiency virus 1, HXB2, read-out: IC50 HIV-1 entry
PBMCs [4] = format: cell-based, human
Method: To measure apoptosis, PBMCs were incubated with or without drugs in a 96-well round bottom plate at 2 × 10^5/200 μL/well. After 2 days, cells were washed with PBS and stained with 2.5 μL Annexin-V-APC (Biosciences, Aalst, Belgium) in 100 μL staining buffer containing 10 mmol/L HEPES pH7.4, 140 mmol/L NaCl, and 2.5 mmol/L CaCl2 for 20 min at room temperature in dark. Cells were then washed with staining buffer and incubated with 100 μL 0.1 μg/mL propidium iodide (PI) (Thermo Fisher, Asse, Belgium) for 5 min at room temperature in dark. Stained cells were measured by flow cytometry (FACSCanto, BD, Aalst, Belgium).

[5] = tested on: DC-SIGN-captured virus transmission to CD4+ T cells; assay: HIV-1 DC-SIGN transmission assay; format: cell-based; conditions: in vitro, data not shown
Method: (§1) Dual chamber transmission assay was performed as previously described. HeLa cells were seeded into an upper chamber of a transwell plate (Sigma-Aldrich, Liège, Belgium), while TZM-bl cells were seeded in the lower chamber. Trans Epithelial Electric Resistance (TEER) was measured using Millicell-ERS Volt-Ohm Meter. HIV-1 ADA-M (200 pg) and drugs were added to the upper chamber after 4 days when TEER reached 150 Ohm/cm^2. 24 h after infection luciferase value of TZM-bl cells lysate was measured using the Luciferase System Kit and the POLARstar Omega Plate Reader. Data were analyzed using GraphPrism. The HIV-1 DC-SIGN transmission assay was performed as previously described.

Coxsackie virus B4 [6] = assay: Broad spectrum antiviral activity, HeLa cells; format: cell-based; conditions: Enterovirus B
HIV-1 ADA-M [7] = assay: microbe, parasite or virus in culture; conditions: Human immunodeficiency virus 1, PBMC, 168 h, read-out: IC50 HIV-1 ADA-M
[8] = tested on: HIV-1 gp120 / CD4 binding; assay: CD4-gp120 interaction assay (ELISA); conditions: in-house ELISA
Method: Human soluble CD4 (sCD4) was immobilized in a 96-well plate by adding 100 ng sCD4 (R&D Systems, Belgium) in 100 μL PBS per well and incubated at 4 °C. After 24 h, the CD4 coated plate was washed with 1% BSA-PBS and blocked by adding 100μL 5% BSA-PBS per well for 1 h at 4 °C. The coated plate was then washed and incubated with or without drugs for 1 h at 4 °C. After washing, 100 ng HIV-1 gp120 protein (Fitzgerald, Acton, MA, USA) was added into the plate and kept for 1 h at 4 °C. The plate was washed, and anti-HIV-1 gp120 (Aalto Bio Reagents, Dublin, Ireland) (100 ng/100 μL PBS) was added. After 1 h, the plate was washed and anti-sheep HRP (Sigma, Belgium) (100 ng/100 μL PBS) was added. After 1 h incubation at 4 °C, 100 μL o-phenylenediamine dihydrochloride (OPD) (Thermo Fisher, Asse, Belgium) was added and incubated for 20 min in dark. One hundred microliters 0.5M H2SO4 was finally added to stop the reaction. OD492 and OD630 were measured by POLARstart Omega Plate Reader. OD492 − OD630 was calculated.

Coxsackie virus B4 [9] = assay: Broad spectrum antiviral activity, vero cells; format: cell-based; conditions: Enterovirus B
CD4 = biological target: T1, CD4 (Homo sapiens, UniProt P01730); assay: Binding competition with anti-CD4 antibodies; conditions: antibodies OKT4 and RPA-T4, U373-CD4-CXCR4/CCR5 cells
T1 construct: host or cells: U373-CD4-CXCR4 and U373-CD4-CCR5 cells
Method: (§2) Binding competition between increasing concentrations of compounds and FITC-conjugated mouse anti-human CD4 clone RPA-4 (Biolegend, Amsterdam, Netherlands), PE-conjugated mouse anti-Human CXCR4 clone 12G5, and PE-conjugated mouse anti-human CCR5 clone 2D7 (BD Pharma, Aalst, Belgium) to U373-CD4-CXCR4 and U373-CD4-CCR5 cells was first tested by flow cytometry (FACSCanto). […] After 1 h of incubation at 4 °C, cells were washed with FACS buffer (1% bovine serum albumin, 0.1% N3Na in PBS, Sigma), and Mean Fluorescence Intensity (MFI) was measured. […] Internalization was stopped after 30 min by addition of NaN3 (0.1%) on ice. Cells were stained with anti-human CXCR4 clone 4G10 (BD, Belgium) or anti-human CCR5 (CD195) clone T21/8, (eBioscience, Asse, Belgium), Near-IR fluorescent reactive dye during 1 h at 4 °C, washed with FACS buffer, and a secondary PE-conjugated goat anti-mouse antibody (Jackson ImmunoResearch, West Grove, PA, USA).

CCR5 = biological target: T2, CCR5 (Homo sapiens, UniProt P51681); assay: Binding competition with anti-CCR5 antibody 2D7; conditions: anti-CCR5 antibody 2D7, U373-CD4-CCR5 cells
T2 construct: host or cells: U373-CD4-CCR5 cells
T2 sequence (P51681 whole entry): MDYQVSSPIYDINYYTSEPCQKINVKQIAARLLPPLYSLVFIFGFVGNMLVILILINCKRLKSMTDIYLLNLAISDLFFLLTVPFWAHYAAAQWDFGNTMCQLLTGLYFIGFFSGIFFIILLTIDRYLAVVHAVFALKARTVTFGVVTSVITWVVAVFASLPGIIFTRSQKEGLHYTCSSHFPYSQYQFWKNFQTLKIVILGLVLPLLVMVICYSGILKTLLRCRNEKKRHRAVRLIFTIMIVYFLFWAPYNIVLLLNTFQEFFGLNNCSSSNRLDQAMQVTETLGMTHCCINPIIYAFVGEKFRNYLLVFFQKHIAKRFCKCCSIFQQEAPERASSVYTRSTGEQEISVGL
Method: as §2

PBMCs [10] = format: cell-based, human; remark: listed apart in the source
Method: To assess drug cytotoxicity, PBMCs were incubated with or without drugs in a 96-well round bottom plate (Thermo Fisher, Asse, Belgium) at 2 × 10^5/200 μL/well. After 2 days, cells were washed with PBS and stained with 0.1 μL near-IR fluorescent reactive dye (Life technologies, Ghent, Belgium) in 100 μL PBS for 20 min at room temperature in dark. Stained cells were measured by flow cytometry (FACSCanto, BD biosciences, Belgium).

PBMCs [11] = tested on: PBMCs
[12] = tested on: Feline corona virus (FIPV); assay: Broad spectrum antiviral activity, CRFK cells; format: cell-based; conditions: Alphacoronavirus 1
[13] = tested on: Influenza A/H1N1 A/Ned/378/05; assay: Broad spectrum antiviral activity, MDCK cells; format: cell-based; conditions: Influenza A virus
HIV-1 ADA-M [14] = assay: Dual chamber transmission assay, HeLa upper chamber / TZM-bl lower chamber; format: cell-based; conditions: dual-chamber system, at IC50 concentration
Method: as §1

`Oc1cc(O)cc(/C=C/c2ccc(O)c(O)c2)c1` [piceatannol, trans-3,3′,4,5′-tetrahydroxystilbene] was tested, and the IC50 [1] was 45.4 ± 4 µM, the IC50 (Punta toro virus) was greater than 100 µM and the IC50 (Yellow fever virus) was greater than 100 µM. The IC50 [2] was 47.5 ± 3.5 µM, the IC50 ([2]; Human alphaherpesvirus 1, HEL) was roughly 45 µM and the IC50 (Reovirus-1) was greater than 100 µM. The IC50 [3] was 10.3 ± 5.74 µM, the “Induction of apoptosis in PBMCs” value (PBMCs [4]) was “did not induce any apoptosis” and the “Prevention of transmission of DC-SIGN-captured virus to CD4+ T cells” value [5] was “did not prevent”. The IC50 (Coxsackie virus B4 [6]) was greater than 100 µM, the IC50 (HIV-1 ADA-M [7]) was 19.9 ± 0.22 µM and the “Inhibition of gp120/CD4 binding” value [8] was “did not”. For the same compound, the IC50 (Coxsackie virus B4 [9]) was greater than 100 µM, the “Inhibition of anti-CD4 antibodies binding to CD4” value (CD4) was “neither CE nor piceatannol did” and the “Inhibition of CCR5 binding” value (CCR5) was “neither CE nor piceatannol did”. The “Cytotoxicity in PBMCs” value (PBMCs [10]) was “not cytotoxic”, the “Effect on expression of CD25 and CD69” value (PBMCs [11]) was “did not have any effect” and the IC50 [12] was greater than 100 µM. The IC50 [13] was greater than 100 µM, the “Decrease of HIV-1 infection” value (HIV-1 ADA-M [14]) was 33% and the “HIV-1 infection of TZM-Bl cells relative to control (100)” value (HIV-1 ADA-M [14]; 24 h post-infection) was 66.9%.
